Reference: ChEMBL document CHEMBL5727779, “Compounds for inhibiting AGC kinase and pharmaceutical compositions comprising the same” (2020)

Key:
[1] = molecular target: Rho-associated protein kinase 1 (Homo sapiens, UniProt Q13464); assay: (§1) ELISA Assay: ROCK Substrate Coated Plate (Part No 241601): One strip well 96-well plate pre-coated with recombinant MYPT1.Buffer: 25 mM Tris, pH 7.5, 10 mM MgCl2, 5 mM Glycerol-2-Phosphate, 0.1 mM Na3VO4; 1% DMSO; 2.5 mM DTT; (Enzyme: ROCK active-II) (Cell Biolabs, Catalog #STA-406, Part No. 241505) 0.1 ng/μl.ATP Solution (Part No. 241604): 100 mM ATP. Final concentration of ATP in reaction mixture: 250 μM.Anti-phospho-MYPT1 (Thr696) (Part No. 241603).Secondary Antibody, HRP Conjugate (Part No. 231003).Biotinylated substrate, diluted to 0.25 μM with buffer described above (without ATP).Steps:1. Purified kinase or cell lysate sample can be used directly in the kinase assay or further diluted with 1× Kinase Buffer. Each sample should be assayed in duplicate.2. Add 90 μL of the diluted active ROCK-II positive control or unknown ROCK samples to the wells of the substrate plate.3. Initiate the kinase reaction by adding 10 μL of the 10× Kinase Reaction Buffer containing DTT and ATP. Mix well.4. Cover with a plate cover and incubate the wells at 30° C. for 30-60 minutes with gentle agitation.5. Stop kinase reaction by flicking out the content or by adding 50 μL of 0.5M EDTA, pH 8.0, to each well.6. Remove the plate cover and empty wells. Wash microwell strips 3 times with 250 μL 1× Wash Buffer per well with thorough aspiration between each wash. After the last wash, empty wells and tap microwell strips on absorbent pad or paper towel to remove excess 1× Wash Buffer.7. Add 100 μL of the diluted anti-phospho-MYPT1 (Thr696) antibody to each well.8. Cover with the plate cover and incubate at room temperature for 1 hour on an orbital shaker.9. Remove the plate cover and empty wells. Wash the strip wells 3 times according to step 6 above.10. Add 100 μL of the diluted HRP-conjugated secondary antibody to each well.11. Cover with the plate cover and incubate at room temperature for 1 hour on an orbital shaker.12. Remove the plate cover and empty wells. Wash microwell strips 3 times according to step 6 above. Proceed immediately to the next step.13. Warm Substrate Solution to room temperature. Add 100 μL of Substrate Solution to each well, including the blank wells. Incubate at room temperature for 5-20 minutes on an orbital shaker.14. Stop the enzyme reaction by adding 100 μL of Stop Solution into each well, including the blank wells. Results should be read immediately (color will fade over time).15. Read absorbance of each microwell on a spectrophotometer using 450 nm as the primary wave length.
[2] = molecular target: Rho-associated protein kinase 2 (Homo sapiens, UniProt O75116); assay: as §1
Chain of Rho-associated protein kinase 2 (O75116 whole entry): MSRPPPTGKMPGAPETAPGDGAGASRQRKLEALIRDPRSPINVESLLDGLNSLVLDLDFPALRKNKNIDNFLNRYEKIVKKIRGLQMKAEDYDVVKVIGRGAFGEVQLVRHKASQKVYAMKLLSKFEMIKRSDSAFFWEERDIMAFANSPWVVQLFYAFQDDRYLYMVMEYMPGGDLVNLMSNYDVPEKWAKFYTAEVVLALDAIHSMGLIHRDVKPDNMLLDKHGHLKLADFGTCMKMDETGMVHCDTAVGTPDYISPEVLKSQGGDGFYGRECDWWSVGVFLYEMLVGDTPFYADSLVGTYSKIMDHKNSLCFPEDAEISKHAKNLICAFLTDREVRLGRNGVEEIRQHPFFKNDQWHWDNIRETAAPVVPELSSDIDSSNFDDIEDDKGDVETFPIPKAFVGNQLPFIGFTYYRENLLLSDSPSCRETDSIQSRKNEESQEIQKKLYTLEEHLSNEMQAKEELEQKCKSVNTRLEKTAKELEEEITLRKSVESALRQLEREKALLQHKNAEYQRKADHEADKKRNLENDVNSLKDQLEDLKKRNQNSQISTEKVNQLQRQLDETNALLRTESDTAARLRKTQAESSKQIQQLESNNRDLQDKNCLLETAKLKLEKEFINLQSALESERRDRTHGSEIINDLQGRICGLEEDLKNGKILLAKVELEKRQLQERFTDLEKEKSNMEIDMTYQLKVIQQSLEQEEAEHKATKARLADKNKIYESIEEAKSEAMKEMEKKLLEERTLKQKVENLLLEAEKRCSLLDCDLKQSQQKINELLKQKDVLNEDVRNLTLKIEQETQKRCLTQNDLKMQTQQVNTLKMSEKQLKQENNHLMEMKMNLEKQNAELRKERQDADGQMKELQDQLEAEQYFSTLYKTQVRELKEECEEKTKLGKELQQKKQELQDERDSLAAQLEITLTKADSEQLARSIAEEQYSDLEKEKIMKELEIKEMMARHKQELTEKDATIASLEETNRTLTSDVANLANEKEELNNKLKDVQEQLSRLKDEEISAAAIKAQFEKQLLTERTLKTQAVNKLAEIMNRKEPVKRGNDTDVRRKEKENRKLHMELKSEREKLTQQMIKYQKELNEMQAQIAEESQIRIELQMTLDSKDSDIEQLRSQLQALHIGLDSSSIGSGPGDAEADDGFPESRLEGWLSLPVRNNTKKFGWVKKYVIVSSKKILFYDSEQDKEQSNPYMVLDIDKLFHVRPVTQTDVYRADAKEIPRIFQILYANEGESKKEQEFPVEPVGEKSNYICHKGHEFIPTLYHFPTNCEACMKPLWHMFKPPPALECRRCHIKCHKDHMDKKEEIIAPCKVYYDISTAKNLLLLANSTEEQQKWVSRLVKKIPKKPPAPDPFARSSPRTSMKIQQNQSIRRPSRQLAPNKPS

Chain of Rho-associated protein kinase 1 (Q13464 whole entry): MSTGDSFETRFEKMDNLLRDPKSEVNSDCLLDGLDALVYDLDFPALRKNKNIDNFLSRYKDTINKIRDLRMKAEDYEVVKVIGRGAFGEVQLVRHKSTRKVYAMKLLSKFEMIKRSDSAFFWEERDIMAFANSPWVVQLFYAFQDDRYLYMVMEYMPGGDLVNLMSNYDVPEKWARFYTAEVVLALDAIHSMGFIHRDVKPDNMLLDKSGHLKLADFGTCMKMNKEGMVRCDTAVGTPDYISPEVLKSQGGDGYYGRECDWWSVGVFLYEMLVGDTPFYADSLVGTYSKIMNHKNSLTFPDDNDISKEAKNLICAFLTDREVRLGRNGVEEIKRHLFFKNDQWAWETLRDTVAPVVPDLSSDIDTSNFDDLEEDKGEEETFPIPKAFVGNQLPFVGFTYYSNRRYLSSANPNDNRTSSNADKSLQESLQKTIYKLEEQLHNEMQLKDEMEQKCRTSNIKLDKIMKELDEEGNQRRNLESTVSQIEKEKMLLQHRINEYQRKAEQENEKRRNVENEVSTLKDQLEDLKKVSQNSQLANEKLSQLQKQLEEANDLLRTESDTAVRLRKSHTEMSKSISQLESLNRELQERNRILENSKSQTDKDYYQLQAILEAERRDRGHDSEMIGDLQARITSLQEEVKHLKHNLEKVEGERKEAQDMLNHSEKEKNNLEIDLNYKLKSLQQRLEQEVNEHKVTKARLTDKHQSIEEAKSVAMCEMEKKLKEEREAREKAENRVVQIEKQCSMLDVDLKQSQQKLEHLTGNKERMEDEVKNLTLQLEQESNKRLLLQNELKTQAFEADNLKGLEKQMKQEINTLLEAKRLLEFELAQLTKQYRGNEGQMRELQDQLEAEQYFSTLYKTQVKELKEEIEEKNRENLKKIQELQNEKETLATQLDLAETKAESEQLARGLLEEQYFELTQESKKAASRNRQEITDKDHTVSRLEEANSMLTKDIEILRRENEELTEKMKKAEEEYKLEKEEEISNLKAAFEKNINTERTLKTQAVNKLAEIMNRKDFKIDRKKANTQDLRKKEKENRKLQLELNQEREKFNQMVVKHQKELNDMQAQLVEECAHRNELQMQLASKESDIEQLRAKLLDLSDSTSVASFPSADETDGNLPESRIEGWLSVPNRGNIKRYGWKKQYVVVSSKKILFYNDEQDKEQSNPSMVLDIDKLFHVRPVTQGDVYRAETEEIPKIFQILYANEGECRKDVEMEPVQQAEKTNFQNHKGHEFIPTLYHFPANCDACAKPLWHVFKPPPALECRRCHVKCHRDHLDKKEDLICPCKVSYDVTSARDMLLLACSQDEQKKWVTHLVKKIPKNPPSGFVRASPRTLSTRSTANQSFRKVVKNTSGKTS

IC50 [1]	IC50 [2]	SMILES
> 1 µM	–	NCCN(Cc1ccc(F)cc1)C(=O)Nc1cccc2cnccc12
–	> 1 µM	CN(C)CCN(Cc1ccccc1)C(=O)Nc1ccc2cnccc2c1
–	> 1 µM	COC(=O)c1ccc(CN(CCO)C(=O)Nc2ccc3cnccc3c2)cc1
–	> 1 µM	CN(C)CCN(Cc1ccc(Oc2ccc(C#N)cc2)cc1)C(=O)Nc1ccc2cnccc2c1
